The first assay concerns the target GLP-1 Receptor (Homo sapiens, UniProt P43220). Briefly: GLP-1R agonist cAMP stimulation assay (HEK293/GLP1R/CRE-LUC cells, cAMP dynamic 2 kit). Type of assay: cell-based. To be noted: GLP1R cAMP Stimulation DR: EC50 (nM). As for the experimental part: Activation of GLP-1 receptor is known to stimulate cyclic AMP (cAMP) production in cells which indicates primary coupling to the Gas subunit of the G protein heterotrimeric complex.
To optimize functional activity directed toward Gas coupling, a HEK293/CRE-Luc cell line developed by HDB stably expressing the GLP-1 Receptor was used. […] Seal the plate and incubate at 37° C. with 5% CO2 for 30 min.
After incubation the cAMP assay signal was generated using cAMP dynamic 2 Kit (Cisbio). 5 μL cAMP-d2 working solution was added to each well, followed with 5 μL Anti-cAMP antibody-cryptate working solution added to each well using ThermoFisher Multidrop Combi. Incubate at room temperature for 1 hour protected from light.
% Activity=[…]×(mean RLU of test sample−mean RLU of vehicle control)/(mean RLU of MAX control−mean RLU of vehicle control))
Sequence of GLP-1 Receptor (P43220 24-463, species assumed): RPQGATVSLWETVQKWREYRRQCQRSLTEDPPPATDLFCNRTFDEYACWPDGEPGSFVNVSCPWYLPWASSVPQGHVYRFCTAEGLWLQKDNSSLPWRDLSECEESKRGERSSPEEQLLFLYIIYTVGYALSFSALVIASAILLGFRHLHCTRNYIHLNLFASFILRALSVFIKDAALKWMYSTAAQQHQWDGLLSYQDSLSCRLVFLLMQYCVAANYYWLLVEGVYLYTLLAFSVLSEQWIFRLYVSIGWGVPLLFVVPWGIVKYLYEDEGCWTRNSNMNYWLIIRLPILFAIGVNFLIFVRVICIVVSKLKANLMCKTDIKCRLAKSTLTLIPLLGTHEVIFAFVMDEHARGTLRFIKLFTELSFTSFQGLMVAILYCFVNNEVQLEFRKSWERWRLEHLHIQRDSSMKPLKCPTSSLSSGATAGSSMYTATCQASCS
The EC50 is the concentration at which the effect is half-maximal. As to `CC(c1cccc(OC2CCN(Cc3nc4ccc(C(=O)O)nc4n3C[C@@H]3CCO3)CC2)n1)c1ccc(Cl)cc1F` (stereo partly drawn) [Compound 128a, 2-{[4-({6-[1-(4-chloro-2-fluorophenyl)ethyl]pyridin-2-yl}oxy)piperidin-1-yl]methyl}-3-{[(2S)-oxetan-2-yl]methyl}-3H-imidazo[4,5-b]pyridine-5-carboxylic acid], a half-maximal response (EC50) required 1.2 nM.

The assay is the same for the next values; noted with them: HEK293/CRE-Luc cell line stably expressing the GLP-1 Receptor; 30 min incubation at 37° C.; read-out: GLP1R cAMP Stimulation DR: EC50.
On to `O=C(O)c1ccc2nc(CC3CCN(C(=O)c4cccc(Cc5ccc(Cl)cc5F)n4)CC3)n(C[C@@H]3CCO3)c2n1` [Compound 106a, (S)-2-((1-(6-(4-Chloro-2-fluorobenzyl)picolinoyl)piperidin-4-yl)methyl)-3-(oxetan-2-ylmethyl)-3H-imidazo[4,5-b]pyridine-5-carboxylic acid], for which the EC50 turned out to be 463 nM.
On the same count and under the same terms, then `O=C(O)c1ccc2nc(CN3CCC(Oc4nc(Cc5ccc(Cl)cc5F)ccc4F)CC3)n(C[C@@H]3CCO3)c2n1` [Compound 111a, 2-{[4-({6-[(4-chloro-2-fluorophenyl)methyl]-3-fluoropyridin-2-yl}oxy)piperidin-1-yl]methyl}-3-{[(2S)-oxetan-2-yl]methyl}-3H-imidazo[4,5-b]pyridine-5-carboxylic acid], with 0.29 nM.
On the same count and under the same terms, the figure for `O=C(O)c1ccc2nc(CN3CCC(Oc4ccnc(Cc5ccc(Cl)cc5F)n4)CC3)n(C[C@@H]3CCO3)c2n1` [Compound 113a, 2-{[4-({2-[(4-chloro-2-fluorophenyl)methyl]pyrimidin-4-yl}oxy)piperidin-1-yl]methyl}-3-{[(2S)-oxetan-2-yl]methyl}-3H-imidazo[4,5-b]pyridine-5-carboxylic acid] is 0.038 nM; for `O=C(O)c1ccc2nc(CN3CCC(Oc4cc(Cc5ccc(Cl)cc5F)ccc4F)CC3)n(C[C@@H]3CCO3)c2n1` [Compound 114a, 2-[(4-{5-[(4-chloro-2-fluorophenyl)methyl]-2-fluorophenoxy}piperidin-1-yl)methyl]-3-{[(2S)-oxetan-2-yl]methyl}-3H-imidazo[4,5-b]pyridine-5-carboxylic acid] it is 1.7 nM.
The same measure, in the same setting: then `O=C(O)c1ccc2nc(CN3CCC(Oc4ccn(Cc5ccc(Cl)cc5F)n4)CC3)n(C[C@@H]3CCO3)c2c1` [Compound 116a, 2-{[4-({1-[(4-chloro-2-fluorophenyl)methyl]-1H-pyrazol-3-yl}oxy)piperidin-1-yl]methyl}-1-{[(2S)-oxetan-2-yl]methyl}-1H-1,3-benzodiazole-6-carboxylic acid], with 2.8 nM.
For `O=C(O)c1ccc2nc(CN3CCC(Cc4cccc(Oc5ccc(Cl)cc5F)n4)CC3)n(C[C@@H]3CCO3)c2n1` [Compound 121a, 2-[(4-{[6-(4-chloro-2-fluorophenoxy)pyridin-2-yl]methyl}piperidin-1-yl)methyl]-3-{[(2S)-oxetan-2-yl]methyl}-3H-imidazo[4,5-b]pyridine-5-carboxylic acid], the EC50 is 6.5 nM.
Still for that read-out and setting: the figure for `O=C(O)c1ccc2nc(CN3CCC(Oc4cccc(Cc5ccc(Cl)cc5)n4)CC3)n(C[C@@H]3CCO3)c2n1` [Compound 124a, (S)-2-((4-((6-(4-chlorobenzyl)pyridin-2-yl)oxy)piperidin-1-yl)methyl)-3-(oxetan-2-ylmethyl)-3H-imidazo[4,5-b]pyridine-5-carboxylic acid] is 0.043 nM; for `O=C(O)c1ccc2nc(CN3CCC(Oc4cccc(Cc5cccc(Cl)c5)n4)CC3)n(C[C@@H]3CCO3)c2n1` [Compound 125a, (S)-2-((4-((6-(3-chlorobenzyl)pyridin-2-yl)oxy)piperidin-1-yl)methyl)-3-(oxetan-2-ylmethyl)-3H-imidazo[4,5-b]pyridine-5-carboxylic acid] it is 1.4 nM; for `O=C(O)c1ccc2nc(CN3CCC(Oc4cccc(Cc5ccccc5Cl)n4)CC3)n(C[C@@H]3CCO3)c2n1` [Compound 126a, (S)-2-((4-((6-(2-chlorobenzyl)pyridin-2-yl)oxy)piperidin-1-yl)methyl)-3-(oxetan-2-ylmethyl)-3H-imidazo[4,5-b]pyridine-5-carboxylic acid] it is 1 nM.
